Laboratory results published in patent publication US20110021505A1, “Use of sulfonyl-substituted 2-sulfonylaminobenzoic acid N-phenylamides in the treatment of pain” (SANOFI-AVENTIS DEUTSCHLAND GMBH, priority 2007, published 2011).

System: tactile allodynia induced in a hind paw by surgical lesion of the sciatic nerve
Experiment: Anti-allodynic effect in the spared nerve injury (SNI) model of neuropathic pain in mice after oral administration
Type: in vivo, male C57B6 mice
Details: for Mean PWT (paw withdrawal threshold) ± SEM / DeltaAUC1 h-6 h of PWL (mean ± SEM): N=4; for Statistical evaluation vs. control (DeltaAUC1 h-6 h): 1-way ANOVA & Dunnett; for DeltaAUC1 h-6 h of PWL (mean ± SEM): AUC contralateral minus ipsilateral paws, 1 h to 6 h after administration
Experimental: In this in vivo mouse model of chronic neuropathic pain the effect on tactile allodynia, a painful sensation after a normally not painful mechanical stimulus, which had been induced in a hind paw by surgical lesion of the sciatic nerve, was determined by measuring the paw withdrawal threshold (PWT), i.e. the exerted force (expressed in grams) at which the mouse withdrew its hind paw.
Tactile allodynia was determined at both hind paws, i.e. ipsilateral and contralateral to the lesion if determined subsequent to surgery, with the automatic von Frey test in which the plantar skin of the hind paws was exposed to a pressure stimulus of increasing intensity up to 5 grams using a dump needle stick. The force in grams at which the animal responded withdrawal of the hind paw (paw withdrawal threshold, PWT), was used as a measure of tactile allodynia.
Two test groups and one control group of animals were used each consisting of four male C57B6 mice. In all groups, baseline PWT values (BL) were determined before surgery. For induction of neuropathic pain then, under general anesthesia, in all groups the two major branches of the sciatic nerve were ligated and transected, with the sural nerve left intact (spared nerve injury, SNI). In this model of neuropathic pain, tactile allodynia developed completely within two days after nerve transection in the hind paw ipsilateral to the lesion and remained stable in the control group over the complete observation period of the experiment.
7 days after surgery, immediately before administration of the test compound, i.e. at the time 0 h, in all groups PWT values were determined for the injured ipsilateral hind paw and the non-injured contralateral hind paw. Then either the test compound or vehicle was administered to the animals orally by gavage. In the test groups, mice received 100 μl/10 g body weight of a suspension of the test compound in vehicle MC/T80 comprising 0.3 mg/ml or 3 mg/ml (prepared as described in pharmaceutical example A) for attaining a dosage of 3 mg/kg body weight and 30 mg/kg body weight, respectively. In the control group, mice analogously received 100 μl/10 g body weight of vehicle MC/T80. 1 h, 2 h, 4 h and 6 h after administration, PWT values were determined.
The given PWT values (in grams) are the mean±SEM (standard error of the mean) of the PWT measurements performed with the ipsilateral hind paw and the contralateral hind paw, respectively, of each animal of the indicated group (N (number of animals)=4) at the time points 0 h (i.e. before administration of test compound or vehicle) and 1 h, 2 h, 4 h and 6 h after administration of test compound or vehicle, as well as the baseline PWT values (BL) determined before surgery.
For the statistical analysis, PWT values were used in two ways, first with a 2-way ANOVA test based on the PWT values and second with a 1-way ANOVA test based on area under the curve (AUC) values for the time period of 6 h after application of the test compound or vehicle. A repeated measures 2-way ANOVA test (factor treatment and repeated measures factor time) was performed on PWT measurements. In case the interaction (treatment×time) was statistically significant, a Winer complementary analysis was done to investigate the effect of treatment for each time point. A Dunnett's test was used to study the potential differences between the control group and the test groups.
As a quantitative measure of the efficacy of a test compound over an extended time period, the area under the curve (AUC) of the individual PWT values for the time period from 1 h to 6 h after administration of test compound or vehicle (AUC1 h-6 h) was determined for the ipsilateral paws of each group and the obtained value subtracted from the value determined for the contralateral paws of the same group to give DeItaAUC1 h-6 h values for each group. […]

O=C(Nc1ccc(S(=O)(=O)N2CCOCC2)cc1)c1cc(Cl)ccc1NS(=O)(=O)c1ccc(Cl)s1.[Na] [Example 94, 5-Chloro-2-(5-chloro-thiophene-2-sulfonylamino)-N-(4-(morpholine-4-sulfonyl)-phenyl)-benzamide sodium salt]
Mean PWT (paw withdrawal threshold) ± SEM (3 mg/kg body weight group, BL baseline before surgery): 4.75 grams
Mean PWT (paw withdrawal threshold) ± SEM (3 mg/kg body weight group, injured ipsilateral paw, 0 h (before administration)): 1.58 grams
Mean PWT (paw withdrawal threshold) ± SEM (3 mg/kg body weight group, non-injured contralateral paw, 0 h (before administration)): 4.84 ± 0.11 grams
Statistical evaluation vs. control (DeltaAUC1 h-6 h) (3 mg/kg body weight oral): *** (significant, p < 0.0001 (ANOVA & Dunnett))
DeltaAUC1 h-6 h of PWL (mean ± SEM) (3 mg/kg body weight oral): 4.60 ± 1.20
Anti-allodynic effect on PWT vs. control (2-way ANOVA, Dunnett) (3 mg/kg body weight oral, from 1 h to 4 h after administration): Statistically significant ant-allodynic effects
Mean PWT (paw withdrawal threshold) ± SEM (3 mg/kg body weight oral, injured ipsilateral paw, 1 h after administration): 2.96 grams
Mean PWT (paw withdrawal threshold) ± SEM (3 mg/kg body weight oral, injured ipsilateral paw, 2 h after administration): 4.64 ± 0.11 grams
Mean PWT (paw withdrawal threshold) ± SEM (3 mg/kg body weight oral, injured ipsilateral paw, 4 h after administration): 4.12 ± 0.17 grams
Mean PWT (paw withdrawal threshold) ± SEM (3 mg/kg body weight oral, injured ipsilateral paw, 6 h after administration): 2.50 ± 0.40 grams
Mean PWT (paw withdrawal threshold) ± SEM (3 mg/kg body weight oral, non-injured contralateral paw, 1 h after administration): 4.66 ± 0.14 grams
Mean PWT (paw withdrawal threshold) ± SEM (3 mg/kg body weight oral, non-injured contralateral paw, 2 h after administration): 4.95 ± 0.02 grams
Mean PWT (paw withdrawal threshold) ± SEM (3 mg/kg body weight oral, non-injured contralateral paw, 4 h after administration): 4.61 ± 0.13 grams
Mean PWT (paw withdrawal threshold) ± SEM (3 mg/kg body weight oral, non-injured contralateral paw, 6 h after administration): 4.82 grams
Mean PWT (paw withdrawal threshold) ± SEM (30 mg/kg body weight group, BL baseline before surgery): 4.70 grams
Mean PWT (paw withdrawal threshold) ± SEM (30 mg/kg body weight group, injured ipsilateral paw, 0 h (before administration)): 1.91 grams
Mean PWT (paw withdrawal threshold) ± SEM (30 mg/kg body weight group, non-injured contralateral paw, 0 h (before administration)): 4.69 ± 0.23 grams
Statistical evaluation vs. control (DeltaAUC1 h-6 h) (30 mg/kg body weight oral): *** (significant, p < 0.0001 (ANOVA & Dunnett))
DeltaAUC1 h-6 h of PWL (mean ± SEM) (30 mg/kg body weight oral): 1.52 ± 0.94
Anti-allodynic effect on PWT vs. control (2-way ANOVA, Dunnett) (30 mg/kg body weight oral, from 1 h to 6 h after administration): Statistically significant ant-allodynic effects
Mean PWT (paw withdrawal threshold) ± SEM (30 mg/kg body weight oral, injured ipsilateral paw, 1 h after administration): 3.70 grams
Mean PWT (paw withdrawal threshold) ± SEM (30 mg/kg body weight oral, injured ipsilateral paw, 2 h after administration): 4.66 ± 0.10 grams
Mean PWT (paw withdrawal threshold) ± SEM (30 mg/kg body weight oral, injured ipsilateral paw, 4 h after administration): 4.51 ± 0.17 grams
Mean PWT (paw withdrawal threshold) ± SEM (30 mg/kg body weight oral, injured ipsilateral paw, 6 h after administration): 4.24 ± 0.08 grams
Mean PWT (paw withdrawal threshold) ± SEM (30 mg/kg body weight oral, non-injured contralateral paw, 1 h after administration): 4.82 ± 0.10 grams
Mean PWT (paw withdrawal threshold) ± SEM (30 mg/kg body weight oral, non-injured contralateral paw, 2 h after administration): 4.84 ± 0.10 grams
Mean PWT (paw withdrawal threshold) ± SEM (30 mg/kg body weight oral, non-injured contralateral paw, 4 h after administration): 4.70 ± 0.19 grams
Mean PWT (paw withdrawal threshold) ± SEM (30 mg/kg body weight oral, non-injured contralateral paw, 6 h after administration): 4.55 grams
Improvement of DeltaAUC1 h-6 h over vehicle control (1-way ANOVA) (both dosages, 3 mg/kg and 30 mg/kg body weight oral): significant improvement over the control group
